How the values were obtained:
[1] = target: T1, CYP27A1 (Homo sapiens, UniProt Q02318); assay: CYP27A1 enzyme assay; type: biochemical; settings: read-out: IC50 in the inhibition of CYP27A1
T1 sequence (Q02318 34-531): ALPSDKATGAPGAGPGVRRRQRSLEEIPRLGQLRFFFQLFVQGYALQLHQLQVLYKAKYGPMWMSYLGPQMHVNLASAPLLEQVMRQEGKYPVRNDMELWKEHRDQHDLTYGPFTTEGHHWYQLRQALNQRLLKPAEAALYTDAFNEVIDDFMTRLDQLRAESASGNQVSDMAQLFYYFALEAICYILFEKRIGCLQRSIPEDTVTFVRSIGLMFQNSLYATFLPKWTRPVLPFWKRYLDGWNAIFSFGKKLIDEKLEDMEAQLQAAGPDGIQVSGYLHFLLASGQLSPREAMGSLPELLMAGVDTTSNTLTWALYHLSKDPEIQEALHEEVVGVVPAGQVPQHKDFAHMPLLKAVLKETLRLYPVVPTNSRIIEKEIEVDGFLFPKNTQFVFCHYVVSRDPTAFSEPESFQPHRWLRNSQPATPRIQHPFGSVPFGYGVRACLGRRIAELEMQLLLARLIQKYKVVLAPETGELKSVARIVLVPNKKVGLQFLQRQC

[2] = test system: OVCAR-3 cells; assay: [3H]-Thymidine proliferation assay with OVCAR-3 cells; type: cell-based; settings: ovarian cancer cells, 6 days, 3H-thymidine incorporation
Protocol: 1. Preparation of Suspension • When OVCAR-3 cells were ˜50% confluent, aspirated media. Washed cells with 1×PBS. Trypsinized with trypsin-EDTA, collected cells from the tissue culture flask, centrifuged (200×g, 5 min) and resuspended in media.
2. Cell Plating. • Counted the cells and adjusted the cell density to 11.4×10^3 to provide 2000 cells in 175 μl (for 1 well). Distributed cell suspension into a 96 well plates at 175 μl (2000 cells) per well. Incubated plate for 24 h at 37° C. in a humidified atmosphere plus 5% CO2. • Substrate addition. • Added 25 μl of compound (final concentration 10^−7 M, 5×10^−8 M 10^−8 M, 5×10^−9 M, 10^−9 M, 10^−10M or 0 M) into each designated well. Incubated plates for 6 days without changing media and drugs at 37° C. in a humidified atmosphere plus 5% CO2.
3. [^3H]-Thymidine incorporation • Added ^3H-thymidine at 0.02 μCi per well and incubated at 37° C. in a humidified atmosphere plus 5% CO2 for 6 h.
4. Plate Harvesting. • Aspirated all media and washed cells with 1×PBS. Trypsinized cells for 30 min at 37° C. in a humidified atmosphere plus 5% CO2. Harvested cells onto a 96 well filter plate (Millipore) using a Tomtec Cell Harvestor, according to manufacturers instructions.
5. Scintillation Counting. • Added 25 μl of scintillation fluid per well. Counted the plate using a scintillation counter. Results: Compounds (20R)-I(a), (20R)-I(c) and (20R)-I(e) all inhibited the proliferation of OVCAR-3 cells.

[3] = test system: SCC-25 cells; assay: [3H]-Thymidine proliferation assay with SCC-25 cells; type: cell-based; settings: head and neck cancer cells, 3 days, 3H-thymidine incorporation
Protocol: 1. Preparation of Cell Suspension • When SCC-25 cells were 70-80% confluent, aspirated media. Washed the cells with 1×PBS. Trypsinized with trypsin-EDTA from the plate, collected cells from the tissue culture flask, centrifuged (500×g, 5 min) and resuspended in media.
2. Cell Plating. • Counted the cells and adjusted the cell density to 10,000/ml. Added 200 μl per well in a 96 well plate. Incubated plate for 24 h at 37° C. in a humidified atmosphere plus 5% CO2. Aspirated used media and replaced with 175 μl per well with media.
3. Substrate Addition. • Added 25 μl of compound (final concentration 10^−7 M, 5×10^−8 M, 10^−8 M, 5×10^−9 M, 10^−10 M or 0 M) into each designated well. Incubated plates for 3 days at 37° C. in a humidified atmosphere plus 5% CO2.
(§1) 4. ^3H-Thymidine Incorporation. • Added ^3H-thymidine at 0.02 μCi per well and incubated at 37° C. in a humidified atmosphere plus 5% CO2 for 6 h.
(§2) 5. Plate Harvesting. • Aspirated all media and washed cells with 1×PBS. Trypsinized cells for 30 min at 37° C. in a humidified atmosphere plus 5% CO2. Harvested cells onto a 96 well filter plate (Millipore) using a Tomtec Cell Harvestor, according to manufacturers instructions.
6. Scintillation Counting. • Added 25 μl of scintillation fluid per well. Counted the plate using a scintillation counter. Results: Compound (20R)-1(e) inhibited SCC-25 cell proliferation.

[4] = test system: BxPC-3 cells; assay: [3H]-Thymidine proliferation assay with BxPC-3 cells; type: cell-based; settings: pancreatic cancer cells, 3 days, 3H-thymidine incorporation
Protocol: 1. Preparation of Cell Suspension • When BxPC-3 cells were 70-80% confluent, aspirated media. Washed the cells with 1×PBS. Trypsinized with trypsin-EDTA from the plate, collected cells from the tissue culture flask, centrifuged (500×g, 5 min) and resuspended in media.
2. Cell Plating. • Counted the cells and adjusted the cell density to 2,000/ml. Added 200 μl per well in a 96 well plate. Incubated plate for 24 h at 37° C. in a humidified atmosphere plus 5% CO2. Aspirated used media and replaced with 175 μl per well with media.
3. Substrate Addition. • Added 25 μl of compound (final concentration 10^−7 M, 5×10^−8 M, 10^−8M, 5×10^−9 M, 10^−10 M or 0 M) into each designated well. Incubated plates for 3 days at 37° C. in a humidified atmosphere plus 5% CO2.
as §1, §2
6. Scintillation Counting. • Added 25 μl of scintillation fluid per well. Counted the plate using a scintillation counter. Results: Compound (20R)-I(e) inhibited BxPC-3 cell proliferation.

Compound: C=C1/C(=C\C=C2/CCC[C@]3(C)C([C@H](C)C/C=C/C(=NOC)C(C)(C)C)=CC[C@@H]23)C[C@@H](O)C[C@@H]1O [(20R)-I(e)]
- IC50 [1]: > 1 µM
- Inhibition of OVCAR-3 cell proliferation [2]: inhibited
- Inhibition of SCC-25 cell proliferation [3]: inhibited
- Inhibition of BxPC-3 cell proliferation [4]: inhibited
